Key:
[1] = system: SK-N-AS cells (MDR− Neuroblastoma); assay: MTS proliferation assay using SK-N-AS cells; format: cell-based; conditions: Homo sapiens, SK-N-AS, read-out: IC50 in SK-N-AS
Protocol: SK-N-AS cells were plated in appropriate growth medium at 5×10^3 per well in 100 μL in 96 well tissue culture plates, Falcon, one plate for each drug to be tested. Column 1 was blank; it contained medium, but no cells. The plates were incubated overnight at 37° C. in 5% CO2 to allow attachment.
Drug diluted in culture media was added to the cells at a concentration of 0.005 nM to 10 μM, in quadruplicate. After 48-72 hours of drug exposure, the MTS agent was added to all wells and incubated 1-6 hrs (37° C., 5% CO2), depending on cell type, as per CellTiter 96® AQueous Non-Radioactive Cell Proliferation Assay (MTS), Promega. Plates were processed using a Bio-Tek Synergy HT Multi-detection microtiter plate reader at 490 nanometer wavelength and data were processed with KC4V.3 software. Data plots of drug concentration vs. absorbance were plotted and the concentration resulting in 50% inhibition (IC50) was extrapolated for each of the tested compounds.
As summarized in Table 1, the IC50 value for each tested compound in the SK-N-AS cell line was determined. The clinical comparator drug, paclitaxel, was included in the experiment to allow comparison of the results of the candidate compounds to a clinically relevant standard in the taxane class.

[2] = Stability in mouse plasma when added in a lipid emulsion (Liposyn); format: in vitro ADME; conditions: 37° C.
Protocol: HPLC grade Methanol from Fisher (Fair lawn, NJ, USA). Part No: A452-4 (074833). HPLC grade Water from Fisher (Fair lawn, NJ, USA). Part No: W5-4 (073352). Drug-free mouse, rat and human plasmas were purchased from Innovative Research Inc. (Southfield, Mich., USA). LIPOSYN® I.V. (30% soybean oil and egg yolk phospholipids, Abbott Laboratories) Fat Emulsion from Hospira, Inc. (Lake Forest, Ill.).
Chromatographic separation of the compounds was performed on a Waters Acquity UPLC™ using a BEH C18 column (1.7 μm, 2.1×50 mm). The mobile phase consisted of Methanol: 0.1% Formic acid (80:20). The flow rate was 0.3 ml/min; the sample injection volume was 5 μL, resulting in a 3 minute run time.
The MS instrumentation consisted of a Waters Micromass Quattro Micro™ triple-quadrupole system (Manchester, UK). The MS system was controlled by a 4.0 version of MassLynx software. Ionization was performed in the positive electrospray ionization mode. MS/MS conditions were the following: capillary voltage 3.02 kV; cone voltage 50 v; extractor voltage 5 v; and RF lens voltage 0.5 v. The source and desolvation temperatures were 100° C. and 400° C. respectively, and the desolvation and cone gas flow were 400 and 30 L/hr, respectively.
The selected mass-to-charge (m/z) ratio transitions of the ART 198 used in the selected ion monitoring (SIM) were: for ART 198, 617 (M+K)^+, for ART 273, 589 (M+K)^+, for ART 488, 913 (M+Na)^+, and for ART 489, 957 (M+Na)^+. The dwell time was set at 200 msec. MS conditions were optimized using direct infusion of standard solutions prepared in methanol and delivered by a syringe pump at a flow rate of 20 μL/min.
Samples of 100 μL were collected at time points of 0, 15, 30, 45, 60, 75, 90, 105, 120, 135, 150, 165, 180, 210, 240, 300, 360 and 480 minutes respectively and the reaction was terminated with methanol. In a separate set of experiments the acid labile, lipophilic molecular conjugates were dissolved in a small amount of ethanol and diluted into a lipid emulsion (Liposyn®) and added to mouse and human plasma before incubation and the hydrolysis of the conjugates was similarly measured. Collected plasma samples of 100 μL containing drug were placed in separate Eppendorf micro centrifuge tubes for processing. Methanol (200 μL) was added to extract the drug using the protein precipitation technique. The micro tubes were then vortex mixed for 10 minutes and centrifuged for 15 minutes at a speed of 10,000 rpm (Eppendorf 5415C centrifuge). The supernatant was collected and filtered using a 0.45 μm filter (Waters 13 mm GHP 0.45 μm) before analysis.
Samples were collected at various times and the percent remaining of the acid labile, lipophilic molecular conjugate of the cancer chemotherapeutic agent was determined along with the percent of the chemotherapeutic agent released from the hydrolysis of the conjugate.

Structure (SMILES) | IC50 [1] [nM] | percent remaining of initial drug ([2]; 0 min) [%] | percent remaining of initial drug ([2]; 15 min) [%] | percent remaining of initial drug ([2]; 30 min) [%] | percent remaining of initial drug ([2]; 45 min) [%] | percent remaining of initial drug ([2]; 60 min) [%] | percent remaining of initial drug ([2]; 75 min) [%] | percent remaining of initial drug ([2]; 90 min) [%] | percent remaining of initial drug ([2]; 105 min) [%] | percent remaining of initial drug ([2]; 120 min) [%] | percent remaining of initial drug ([2]; 135 min) [%] | percent remaining of initial drug ([2]; 150 min) [%] | percent remaining of initial drug ([2]; 165 min) [%] | percent remaining of initial drug ([2]; 180 min) [%] | percent remaining of initial drug ([2]; 210 min) [%] | percent remaining of initial drug ([2]; 240 min) [%] | percent remaining of initial drug ([2]; 300 min) [%] | percent remaining of initial drug ([2]; 360 min) [%]
CCCCCCCCCCCCCCCC1OCC(COC(=O)O[C@@H]2C(=O)C=C(C)[C@@H]3C[C@H]4OC(=O)C(OC(=O)CC(O)(C(C)C)C(C)C)C5[C@@H](C)[C@@H](O)[C@@]6(O)OC[C@@]54C6[C@@]23C)O1 (some centres unmarked) [ART 488] | 0.33 ± 0.1 | 100 | 98.7 | 98.2 | 97.4 | 96.9 | 97.0 | 98.3 | 96.0 | 95.2 | 93.8 | 93.1 | 92.9 | 91.8 | 91.7 | 91.4 | 91.3 | 90.0
CCCCCCCCCCCCCCCC1OCC(COC(=O)OC2=C(C)[C@@H]3C[C@H]4OC(=O)C(OC(=O)CC5(O)CCCCC5)[C@H]5[C@]6(C(=O)OC)OC[C@]45[C@H]([C@@H](O)[C@@H]6O)[C@@]3(C)CC2=O)O1 (some centres unmarked) [ART 489] |  | 100 | 98.0 | 97.9 | 97.4 | 91.4 | 90.3 | 87.9 | 80.7 | 80.4 | 79.9 | 79.2 | 78.7 | 78.2 | 75.6 | 74.7 | 73.7 | 73.0

From patent US10172957B2, “Acid-labile lipophilic prodrugs of cancer chemotherapeutic agents” (priority 2011, dated 2019)
